According to patent publication US8058332B2, “Phosphorus-sulfur FR additives and polymer systems containing same” (priority 2006, dated 2011):

Format: physicochemical
Conditions: TGA, nitrogen 60 mL/min, heating rate 10° C./min, room temperature to 600° C.
Procedure: A useful indicator of thermal stability is a 5% weight loss temperature, which is measured by thermogravimetric analysis as follows: ˜10 milligrams of the phosphorus-sulfur FR additive is analyzed using a TA Instruments model Hi-Res TGA 2950 or equivalent device, with a 60 milliliters per minute (mL/min) flow of gaseous nitrogen and a heating rate of 10° C./min over a range of from room temperature (nominally 25° C.) to 600° C. The mass lost by the sample is monitored during the heating step, and the temperature at which the sample has lost 5% of its initial weight is designated the 5% weight loss temperature (5% WLT). This method provides a temperature at which a sample undergoes a cumulative weight loss of 5 wt %, based on initial sample weight. […] When it is to be used in a melt-processing operation with a combustible polymer, the phosphorus-sulfur FR additive should have a 5% WLT of at least 150° C.

First: 2,2′,2″,2″′-[1,2,4,6-phenylenetetra(methylthio)]tetra[5,5-dimethyl-1,3,2-dioxaphosphorinane]-2,2′,2″,2″′-sulfide [Example 7]
Second: 2,2′-{1,4-phenylenebis[(dimethylsilanediyl)ethane-2,1-diylbicyclo[2.2.1]heptane-6,2-diylthio]}bis(5,5-dimethyl-1,3,2-dioxaphosphorinane) 2,2′-disulfide [Example 27]
The “5% WLT” value of the first is lower: 281 °C for the first, 285 °C for the second.

First: CC1(C)COP(=S)(SC/C=C/CSP2(=S)OCC(C)(C)CO2)OC1 [Example 1, 2,2′-[2-butene-1,4-diylbis(methylthio)]bis[5,5-dimethyl-1,3,2-dioxaphosphorinane]-2,2′-disulfide]
Second: CC1(C)COP(=S)(SCc2ccccc2CSP2(=S)OCC(C)(C)CO2)OC1 [Example 4, 2,2′-[1,2-phenylenebis(methylthio)]bis[5,5-dimethyl-1,3,2-dioxaphosphorinane]-2,2′-disulfide]
The “5% WLT” value of the first is higher: 241 °C for the first, 240 °C for the second.

Compared with `CC1(C)COP(=O)(SCc2ccccc2CSP2(=O)OCC(C)(C)CO2)OC1` [Example 5, 2,2′-[1,2-phenylenebis(methylthio)]bis[5,5-dimethyl-1,3,2-dioxaphosphorinane]-2,2′-dioxide], `Cc1c(CSP2(=S)OCC(C)(C)CO2)c(C)c(CSP2(=S)OCC(C)(C)CO2)c(C)c1CSP1(=S)OCC(C)(C)CO1` [Example 8, 2,2′,2″-[2,4,6-trimethyl-1,3,5-phenylenetris(methylthio)]tris[5,5-dimethyl-1,3,2-dioxaphosphorinane]-2,2′,2″-disulfide] is higher in “5% WLT” value: 247 °C for the first, 283 °C for the second.

Compared with `CC1(C)COP(=S)(SCP(=O)(CSP2(=S)OCC(C)(C)CO2)CSP2(=S)OCC(C)(C)CO2)OC1` [Example 16], `CC1(C)COP(=S)(Sc2nc(SP3(=S)OCC(C)(C)CO3)nc(SP3(=S)OCC(C)(C)CO3)n2)OC1` [Example 17, 2,2′,2″-[s-triazine-2,4,6-tris(thio)]tris[(5,5-dimethyl-1,3,2-dioxaphosphorinane)-2,2′,2″-sulfide]] is higher in “5% WLT” value: 243 °C for the first, 249 °C for the second.

Compared with `CC1(C)COP(=S)(N(Cc2ccccc2)P2(=S)OCC(C)(C)CO2)OC1` [Example 18, N-benzyl-N-(5,5-dimethyl-2-sulfido-1,3,2-dioxaphosphorinan-2-yl)-5,5-dimethyl-1,3,2-dioxaphosphorinan-2-amine-2-sulfide], `CC1(C)COP(=S)(Cc2ccccc2CP2(=S)OCC(C)(C)CO2)OC1` [Example 19, [1,2-phenylenebis(methylene)]bis[5,5-dimethyl[1,3,2]dioxaphosphorinane]2,2′-disulfide] is higher in “5% WLT” value: 202 °C for the first, 284 °C for the second.

Going from `CC1(C)COP(=S)(SCCCCSP2(=S)OCC(C)(C)CO2)OC1` [Example 20, 2,2′-[1,4-butylbis(methylthio)]bis[5,5-dimethyl-1,3,2-dioxaphosphorinane]-2,2′-disulfide] to `CC1(C)COP(=S)(SC2CC3CC2CC3SP2(=S)OCC(C)(C)CO2)OC1` (stereo not drawn) [Example 21, 2,2′-[bicyclo[2.2.1]heptane-2,5-diylbis(thio)]bis[5,5-dimethyl-1,3,2-dioxaphosphorinane]2,2′-disulfide], the “5% WLT” value rises from 244 °C to 264 °C.

First: CCOC(=O)CC(SP1(=S)OCC(C)(C)CO1)C(=O)OCC (stereo not drawn) [Example 23]
Second: CC(CCCCCCC(C)SP1(=S)OCC(C)(C)CO1)SP1(=S)OCC(C)(C)CO1 (stereo not drawn) [Example 24, 2,2′-[decane-2,9-diylbis(thio)]bis(5,5-dimethyl-1,3,2-dioxaphosphorinane)2,2′-disulfide]
The “5% WLT” value of the first is lower: 218 °C for the first, 239 °C for the second.

Going from `CC1(C)COP(=S)(SC(c2ccccc2)c2ccccc2)OC1` [Example 25, 2-[(diphenylmethyl)thio]-5,5-dimethyl-1,3,2-dioxaphosphorinane 2-sulfide] to `O=P1(SC/C=C/CSP2(=O)Oc3ccccc3-c3ccccc32)Oc2ccccc2-c2ccccc21` (stereo not drawn) [Example 26], the “5% WLT” value rises from 238 °C to 270 °C.

Compared with `CC1(C)COP(=O)(Cc2ccc(CSP3(=S)OCC(C)(C)CO3)cc2)OC1` [Example 28, 2-({4-[(5,5-dimethyl-2-oxido-1,3,2-dioxaphosphorinan-2-yl)methyl]benzyl}thio)-5,5-dimethyl-1,3,2-dioxaphosphorinane-2-sulfide], `O=P1(SCc2ccccc2CSP2(=O)Oc3ccccc3-c3ccccc32)Oc2ccccc2-c2ccccc21` (stereo not drawn) [Example 29, 6,6′-[1,2-phenylenebis(methylenethio)]bis(6H-dibenz[c, e][1,2]oxaphosphorin) 6,6′-dioxide] is higher in “5% WLT” value: 257 °C for the first, 262 °C for the second.

Going from `Cc1c(CSP2(=O)Oc3ccccc3-c3ccccc32)c(C)c(CSP2(=O)Oc3ccccc3-c3ccccc32)c(C)c1CSP1(=O)Oc2ccccc2-c2ccccc21` (stereo not drawn) [Example 30, 6,6′,6″-[(2,4,6-trimethylbenzene-1,3,5-triyl)tris(methylenethio)]tris(6H-dibenzo-[c, e][1,2]oxaphosphorin) 6,6′,6″-trioxide] to `CC(COCC(COCC(C)SP1(=S)OCC(C)(C)CO1)(COCC(C)SP1(=S)OCC(C)(C)CO1)COCC(C)SP1(=S)OCC(C)(C)CO1)SP1(=S)OCC(C)(C)CO1` (stereo not drawn) [Example 31], the “5% WLT” value rises from 219 °C to 241 °C.

Compared with `CC1(C)COP(=S)(SCc2c(CSP3(=S)OCC(C)(C)CO3)c(CSP3(=S)OCC(C)(C)CO3)c(CSP3(=S)OCC(C)(C)CO3)c(CSP3(=S)OCC(C)(C)CO3)c2CSP2(=S)OCC(C)(C)CO2)OC1` [Example 33, 2,2′,2″,2″′,2″″′,2″″″-[benzene-1,2,3,4,5,6-hexaylhexakis(methylenethio)]hexakis(5,5-dimethyl-1,3,2-dioxaphosphorinane) 2,2′,2″,2″′,2′″″,2″″″-hexasulfide], `CC1(C)COP(=S)(SCCC(=O)NCNC(=O)CCSP2(=S)OCC(C)(C)CO2)OC1` [Example 36] is lower in “5% WLT” value: 262 °C for the first, 220 °C for the second.

Going from `CC1(C)COP(=S)(SC(c2ccccc2)c2cccc(C(SP3(=S)OCC(C)(C)CO3)c3ccccc3)c2)OC1` (stereo not drawn) [Example 37, 2,2′-{1,3-phenylenebis[(phenylmethylene)thio]}bis(5,5-dimethyl-1,3,2-dioxaphosphorinane) 2,2′-disulfide] to `S=P1(CC(c2ccccc2)c2ccccc2)OCC2(CO1)COP(=S)(SC(c1ccccc1)c1ccccc1)OC2` (stereo not drawn) [Example 38], the “5% WLT” value falls from 259 °C to 240 °C.
